{
  "source": "patent US4859693A",
  "about": "“Antiinflammatory carbinoloimidazoles” (E. I. Du Pont de Nemours and Company, priority 1988, dated 1989)",
  "data": [
    {"test_system": "inflammation induced by tetradecanoyl phorbol acetate (TPA)", "experiment": "TPA model: inflammation (ear edema) induced by tetradecanoyl phorbol acetate in mice", "type": "in vivo", "settings": "100 μg/ear topical, mouse ear, TPA stimulus, edema measured four hours later", "from_the_text": "One such model is the inflammation induced by tetradecanoyl phorbol acetate (TPA). The test methods are modified from those of Marks et al. (Cancer Res, 36, p. 2636, 1976). The TPA model is a murine model which mimics many of the inflammatory changes which occur in human disease such as psoriasis. In this model, elevated levels of inflammatory arachidonic acid metabolites are found, and an influx or polymorphonuclear leukocytes (PMN) is observed. The procedure used to evaluate the compounds of this invention is as follows: the test compound (100 μg/ear) is applied to the ears of mice in an appropriate vehicle, such as acetone, and then the inflammatory stimulus is applied to the right ear. Four hours later, the edema is measured by removing standard sized discs from the mouse ears using a biopsy punch. The masses of the discs are then determined.", "units": {"% Inhibition of Control Inflammation": "%"}, "values": [
      {"smiles": "CCCC(n1ccnc1)C(O)(c1ccc(F)cc1)c1ccc(F)cc1", "note": "(centres unmarked) [Example 3c]", "% Inhibition of Control Inflammation": 30},
      {"smiles": "CC(n1ccnc1)C(O)(c1ccc(F)cc1)c1ccc(F)cc1", "note": "(centres unmarked) [Example 3b]", "% Inhibition of Control Inflammation": 40},
      {"smiles": "C[C@@H](n1ccnc1)C(O)(c1ccc(Cl)cc1)c1ccc(Cl)cc1", "note": "[Example 5a, (R)-1,1-bis(4-chlorophenyl)-2-(1-imidazolyl)propanol]", "% Inhibition of Control Inflammation": 61},
      {"smiles": "CCC(n1ccnc1)C(O)(c1ccc(F)cc1)c1ccc(F)cc1", "note": "(racemic) [Example 3a, 1,1-bis(4-fluorophenyl)-2-(1-imidazolyl)butanol]", "% Inhibition of Control Inflammation": 40},
      {"smiles": "OC(CCCn1ccnc1)(c1ccc(F)cc1)c1ccc(F)cc1", "note": "[Example 1a, 1,1-bis(4-fluorophenyl)-4-(1-imidazolyl)butanol]", "% Inhibition of Control Inflammation": 31},
      {"smiles": "OC(Cn1ccnc1)(c1ccc(F)cc1)c1ccc(Br)cc1", "note": "(centres unmarked) [Example 2b, 1-(4-fluorophenyl)-1-(4-bromophenyl)-2-(1-imidazolyl)-ethanol]", "% Inhibition of Control Inflammation": 41},
      {"smiles": "Cc1ccc(C(O)(c2ccc(C)cc2)[C@H](C)n2ccnc2)cc1", "note": "[Example 4a, (S)-1,1-bis(4-methylphenyl)-2-(1-imidazolyl)propanol]", "% Inhibition of Control Inflammation": 33},
      {"smiles": "CC(n1ccnc1)C(O)(c1ccc(Cl)cc1)c1ccc(Cl)cc1", "note": "(centres unmarked) [Example 3e]", "% Inhibition of Control Inflammation": 55}
    ]}
  ]
}
